Assay results as given in patent US4965280A, “Antifungal carbinols” (E. I. Du Pont de Nemours and Company, priority 1989, dated 1990).
Values after ≈ are worked out from the molar mass of the structure shown. Where a name gives a salt, the structure may show the parent alone. Read-outs that look alike come from different tables or passages of the source.

Experiments:
[1] = tested on: Cercosporidium personatum; experiment: Example B Peanut Late Leafspot; format: in vivo; settings: Nothopassalora personata, read-out: disease control rating, Ex. B
Experimental: (§1) The test compounds were dissolved in acetone in an amount equal to 6% of the final volume and then suspended at a concentration of 100 or 20 ppm in purified water containing 250 ppm of the surfactant TREM 014 (polyhydric alcohol esters). This suspension was sprayed to the point of run-off on peanut seedlings.

Botrytis cinerea = experiment: Example C bean grey mold; format: in vivo; settings: Botrytis cinerea, 24 h, read-out: disease control rating, Ex. C
Experimental: as §1, with “broad bean” for “peanut”

Pyricularia oryzae = experiment: whole plant or invertebrate; format: in vivo; settings: Pyricularia oryzae, 120 h, read-out: disease control rating, Ex. E, 100 PPM
Rhizoctonia solani = experiment: Example F rice sheath blight; format: in vivo; settings: Rhizoctonia solani, 144 h, read-out: disease control rating, Ex. F
Experimental: as §1, with “rice” for “peanut”

Puccinia recondita = experiment: Example G wheat leaf rust; format: in vivo; settings: read-out: disease control rating, Ex. G
Phytophthora infestans = experiment: whole plant or invertebrate; format: in vivo; settings: Phytophthora infestans, in Solanum lycopersicum, read-out: disease control rating, Ex. H, 100 PPM
Plasmorpara viticola = experiment: Example I grape downy mildew; format: in vivo; settings: read-out: disease control rating, Ex. I
Experimental: as §1, with “grape” for “peanut”

[2] = tested on: Candida albicans ATCC 11651; experiment: In vitro antifungal MIC, microtiter broth dilution; settings: for MIC values, C. albicans: 30°, 24 hours; for MIC: Candida albicans, ATCC11651, 24 h
[3] = tested on: Aspergillus fumigatus ATCC 28214; experiment: In vitro antifungal MIC, microtiter broth dilution; settings: for MIC values, A. fumigatus: 30°, 24 hours; for MIC: Aspergillus fumigatus, ATCC28214, 24 h
[4] = tested on: Candida albicans ATCC 11651; experiment: In vivo systemic Candida infection in mice, primary assay; parameters: species or system Candida albicans; CF-1 female mice; settings: for responders at 1 mg/kg/day / responders at 150 mg/kg: Candida albicans, read-out: % Survival
Description: The […] activity of test compounds is based on the percent (%) survival of infected animals receiving test or standard agent compared to that in an infected untreated group (Table 6). The in vivo assays are chronic systemic infections lethal to mice within 7 days post infection, [J. Barnes, et al. Lab Investigation, 49 460-467 (1963), and T. Rogers and E. Balish, Infection and Immunity, 14 33-38 (1976)].
Candida albicans ATCC 11651, from a frozen stock culture (10^9 organisms/ml) maintained at -70°, is diluted in saline to 1×10^7 organisms/ml and 0.2 ml inoculated intravenously (caudal vein) into 20.0 gm CF-1 female mice (Charles River).
Test compounds are routinely solubilized in 0.25% (w/v) methylcellulose (Methocel®) but for those compounds difficult to solubilize 10% (w/v) Emulophor® (EL620 GAF Corp.) is used. The standard antifungal agents, amphotericin B (Fungizone®) in water and ketoconazole (Nizoral®) in Methocel®, are administered at 1.0 mg/kg/day and 150 mg/kg/day, respectively.
In a primary assay, mice (10 per group) are infected with C. albicans, and receive test compounds at 50 or 150 mg/kg/day via the subcutaneous route. Animals are dosed with the test compound at 1 and 6 hour post-infection and then once daily for the next three days. Survival of mice in each group is recorded for 21 days.
Compounds which protect ≥70% of the infected animals for 14 days at a dose 150 mg/kg/day or less are viewed as active.

Venturia inaequalis = experiment: Example A apple scab; format: in vivo; settings: 20 PPM, read-out: disease control rating, Ex. A
Experimental: as §1, with “apple seedings.” for “peanut seedlings.”

[5] = tested on: Erysiphe graminis f. sp. tritici; experiment: Example D wheat powdery mildew; format: in vivo; settings: Blumeria graminis, 144 h; 20 PPM; read-out: disease control rating, Ex. D
Experimental: as §1, with “wheat” for “peanut”

[6] = read-out: MIC values, C. albicans, 30°, 24 hours
[7] = read-out: MIC values, A. fumigatus, 30°, 24 hours
[8] = read-out: MIC values, C. albicans
[9] = read-out: MIC values, A. fumigatus
[10] = ATCC11651, 168 h, 150 mg/kg per day, day 7
[11] = ATCC11651, 336 h, 150 mg/kg per day, day 14
[12] = ATCC11651, 504 h, 150 mg/kg per day, day 21

SMILES: C=C(CO)C(O)(Cn1cncn1)c1ccccc1 (stereo not drawn) [Example 448]
- pest or weed control at 100 ppm ([1]; 100 PPM): 0%
- pest or weed control at 100 ppm (Botrytis cinerea): 54%
- pest or weed control at 100 ppm (Pyricularia oryzae): 0%
- pest or weed control at 100 ppm (Rhizoctonia solani): 42%
- pest or weed control at 100 ppm (Puccinia recondita; 100 PPM): 16%
- pest or weed control at 100 ppm (Phytophthora infestans): 0%
- pest or weed control at 100 ppm (Plasmorpara viticola): 0%

SMILES: C=C(c1ccccc1Cl)C(O)(Cn1cncn1)c1ccc(F)cc1F (stereo not drawn) [35 HCl salt]
- MIC values, C. albicans [2]: 0.03 µg/mL
- MIC values, A. fumigatus [3]: ≤ 0.2 µg/mL

SMILES: C=C(c1ccccc1Cl)C(O)(Cn1cncn1)c1ccc(F)cc1F (stereo not drawn) [35 salt]
- % Survival ([4]; 150 mg/kg per day, day 7): 100%
- % Survival ([4]; 150 mg/kg per day, day 14): 100%
- % Survival ([4]; 150 mg/kg per day, day 21): 70%

SMILES: C=C(c1ccc(F)cc1)C(O)(c1ccc(F)cc1)C(F)n1cncn1 (stereo not drawn) [Example 1258]
- MIC [2, 6]: 1.6 µg/mL (≈ 4.63 µM)
- MIC [3, 7]: > 100 µg/mL

SMILES: C[C@@H]1[C@H](O)[C@@H](C)/C=C/C=C/CC/C=C/C=C/C=C/C=C/C(O[C@H]2O[C@H](C)[C@@H](O)[C@H](N)[C@@H]2O)CC2O[C@](O)(CC(O)C(O)CCC(O)CC(O)CC(O)CC(=O)O[C@H]1C)CC(O)C2C(=O)O (stereo partly drawn) [Nystatin, reference compound]
- MIC values, C. albicans [2]: 1.3 ± 0 µg/mL (≈ 1.4 µM)
- MIC values, A. fumigatus [3]: 3.0 ± 1.0 µg/mL (≈ 3.24 µM)

SMILES: C=C(c1ccccc1Cl)C(O)(Cn1cncn1)c1ccc(Cl)cc1 (stereo not drawn) [34 salt]
- % Survival ([4]; 150 mg/kg per day, day 7): 100%
- % Survival ([4]; 150 mg/kg per day, day 14): 100%
- % Survival ([4]; 150 mg/kg per day, day 21): 100%

SMILES: C[C@@H]1[C@H](O)[C@@H](C)/C=C/C=C/C=C/C=C/C=C/C=C/C=C/[C@H](O[C@@H]2O[C@H](C)[C@@H](O)[C@H](N)[C@@H]2O)C[C@@H]2O[C@](O)(C[C@@H](O)C[C@@H](O)[C@H](O)CC[C@@H](O)C[C@@H](O)CC(=O)O[C@H]1C)C[C@H](O)[C@H]2C(=O)O [Amphotericin B, reference compound]
- responders at 1 mg/kg/day ([4]; ATCC11651, 168 h): 100%
- responders at 1 mg/kg/day ([4]; ATCC11651, 336 h): 100%
- responders at 1 mg/kg/day ([4]; ATCC11651, 504 h): 100%
- MIC [2, 8]: 0.33 ± 0.2 µg/mL (≈ 0.357 µM)
- MIC [3, 9]: 1.4 ± 0.5 µg/mL (≈ 1.52 µM)

SMILES: CC=C(c1ccccc1)C(O)(Cn1cncn1)c1ccc(F)cc1 (stereo not drawn) [Example 286]
- responders at 150 mg/kg [4, 10]: 100%
- responders at 150 mg/kg [4, 11]: 50%
- responders at 150 mg/kg [4, 12]: 20%
- MIC [2, 6]: 0.4 µg/mL (≈ 1.24 µM)
- MIC [3, 7]: 25 µg/mL (≈ 77.3 µM)

SMILES: C=C(c1ccc(Br)cc1)C(O)(Cn1cncn1)c1ccc(F)cc1 (stereo not drawn) [Example 85]
- responders at 150 mg/kg [4, 10]: 100%
- responders at 150 mg/kg [4, 11]: 80%
- responders at 150 mg/kg [4, 12]: 70%
- MIC [2, 6]: ≤ 0.4 µg/mL
- MIC [3, 7]: 12.5 µg/mL (≈ 32.2 µM)

SMILES: Clc1ccc(COC(Cn2ccnc2)c2ccc(Cl)cc2Cl)c(Cl)c1 (stereo not drawn) [Miconazole, reference compound]
- MIC [2, 8]: ≤ 0.1 µg/mL
- MIC [3, 9]: 1.3 µg/mL (≈ 3.12 µM)

SMILES: OC(Cn1cncn1)(c1ccc(F)cc1)C1(c2ccc(F)cc2)CO1 (single isomer, unassigned) [Example 1487, 2,3-bis(4-fluorophenyl)-1-(1H-1,2,4-triazol-1-yl)-3,4-epoxy-2-butanol]
- responders at 150 mg/kg [4, 10]: 100%
- responders at 150 mg/kg [4, 11]: 100%
- responders at 150 mg/kg [4, 12]: 70%
- MIC [2, 6]: 0.4 µg/mL (≈ 1.17 µM)
- MIC [3, 7]: 6.3 µg/mL (≈ 18.3 µM)

SMILES: C=C(c1ccc(F)cc1)C(O)(Cn1cncn1)c1ccc(F)cc1 (single isomer, unassigned) [1277 HCl salt]
- MIC values, C. albicans [2]: 0.03 µg/mL
- MIC values, A. fumigatus [3]: 3.2 µg/mL

SMILES: C=C(c1ccc(F)cc1)C(O)(Cn1cncn1)c1ccc(F)cc1 (stereo not drawn) [1 HCl salt]
- MIC values, C. albicans [2]: 0.05 µg/mL
- MIC values, A. fumigatus [3]: 12.5 µg/mL

SMILES: C=C(c1cccc(C(F)(F)F)c1)C(O)(Cn1cncn1)c1ccc(F)cc1 (stereo not drawn) [Example 725]
- responders at 150 mg/kg [4, 10]: 90%
- responders at 150 mg/kg [4, 11]: 90%
- responders at 150 mg/kg [4, 12]: 40%

SMILES: C=C(c1ccc(Cl)cc1)C(O)(Cn1cncn1)c1ccc(Cl)cc1Cl (stereo not drawn) [26 HCl salt]
- MIC values, C. albicans [2]: 0.03 µg/mL
- MIC values, A. fumigatus [3]: 0.4 µg/mL

SMILES: C=C(c1ccc(Cl)cc1)C(O)(Cn1cncn1)c1ccc(Cl)cc1Cl (stereo not drawn) [Example 26 HCl salt]
- % Survival ([4]; 150 mg/kg per day, day 7): 100%
- % Survival ([4]; 150 mg/kg per day, day 14, listed as 26 salt): 90%
- % Survival ([4]; 150 mg/kg per day, day 21, listed as 26 salt): 80%

SMILES: C=C(c1ccc(Cl)cc1)C(O)(Cn1cncn1)c1cccc(C(F)(F)F)c1 (stereo not drawn) [Example 685]
- responders at 150 mg/kg [4, 10]: 30%
- responders at 150 mg/kg [4, 11]: 10%
- responders at 150 mg/kg [4, 12]: 0%
- pest or weed control at 20 ppm (Venturia inaequalis): 57%
- pest or weed control at 20 ppm ([1]; 20 PPM): 66%
- pest or weed control at 20 ppm (Botrytis cinerea; 20 PPM): 28%
- pest or weed control at 100 ppm (Botrytis cinerea): 0%
- pest or weed control at 20 ppm [5]: 67%
- pest or weed control at 100 ppm (Pyricularia oryzae): 0%
- pest or weed control at 20 ppm (Rhizoctonia solani; 20 PPM): 15%
- pest or weed control at 100 ppm (Rhizoctonia solani): 29%
- pest or weed control at 20 ppm (Puccinia recondita; 20 PPM): 100%
- MIC [2, 6]: 0.8 µg/mL (≈ 2.03 µM)
- MIC [3, 7]: 100 µg/mL (≈ 254 µM)

SMILES: C=C(c1ccccc1)C(O)(Cn1cncn1)C(F)(F)C(F)(F)C(F)(F)C(F)(F)F (stereo not drawn) [Example 55]
- responders at 150 mg/kg ([4]; ATCC11651, 168 h): 100%
- responders at 150 mg/kg ([4]; ATCC11651, 336 h): 70%
- responders at 150 mg/kg ([4]; ATCC11651, 504 h): 50%

SMILES: C=C(c1ccc(C(C)(C)C)cc1)C(O)(Cn1cncn1)c1ccc(F)cc1 (stereo not drawn) [Example 114]
- responders at 150 mg/kg [4, 10]: 70%
- responders at 150 mg/kg [4, 11]: 10%
- responders at 150 mg/kg [4, 12]: 10%
- MIC [2, 6]: 0.4 µg/mL (≈ 1.09 µM)
- MIC [3, 7]: 50 µg/mL (≈ 137 µM)

SMILES: C=C(c1ccc(C(C)(C)C)cc1)C(O)(Cn1cncn1)c1ccc(Cl)cc1 (stereo not drawn) [Example 117]
- responders at 150 mg/kg [4, 10]: 60%
- responders at 150 mg/kg [4, 11]: 0%
- responders at 150 mg/kg [4, 12]: 0%
- MIC [2, 6]: 0.4 µg/mL (≈ 1.05 µM)
- MIC [3, 7]: 100 µg/mL (≈ 262 µM)

SMILES: C=C(c1ccc(F)cc1)C(O)(c1ccc(F)cc1)C(F)(F)n1cncn1 (stereo not drawn) [Example 1260]
- MIC [2, 6]: 0.8 µg/mL (≈ 2.2 µM)
- MIC [3, 7]: > 100 µg/mL

SMILES: CC(=O)N1CCN(c2ccc(OCC3COC(Cn4ccnc4)(c4ccc(Cl)cc4Cl)O3)cc2)CC1 (stereo not drawn) [Ketoconazole, reference compound]
- responders at 150 mg/kg [4, 10]: 100%
- responders at 150 mg/kg [4, 11]: 80%
- responders at 150 mg/kg [4, 12]: 50%
- MIC [2, 6]: ≤ 0.1 µg/mL
- MIC [3, 7]: 11 ± 5 µg/mL (≈ 20.7 µM)

SMILES: C=C(c1ccccc1Cl)C(O)(Cn1cncn1)c1ccc(Cl)cc1 (stereo not drawn) [34 HCl salt]
- MIC values, C. albicans [2]: 0.03 µg/mL
- MIC values, A. fumigatus [3]: 1.6 µg/mL

SMILES: C=C(c1ccc(F)cc1)C(O)(Cn1cncn1)c1ccncc1 (stereo not drawn) [Example 699]
- MIC [2, 6]: 50 µg/mL (≈ 161 µM)
- MIC [3, 7]: 100 µg/mL (≈ 322 µM)

SMILES: Nc1nc(=O)[nH]cc1F [5-Fluorocytosine, reference compound]
- MIC [2, 6]: 0.14 ± 0.1 µg/mL (≈ 1.08 µM)
- MIC [3, 7]: 5.7 ± 4 µg/mL (≈ 44.2 µM)
